Results taken from ChEMBL document CHEMBL1201862, “PubChem BioAssay data set” (2004).
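Step 1: Grow cells in 96-well plates. Step 2: Expose to compound for 48 hours at 5 concentrations. Step 3: Interpolate endpoints linearly; if unreached, use highest concentration. GI50 is the concentration that inhibits growth by half.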 Calls of active or inactive are those of the source. Rule as the data show it: active = GI50 up to about 1.1 µM and inactive = higher.

Legend:
Assay in all cases: inhibition of tumour cell growth, NCI panel, 48 h
COLO 205 = test system: COLO 205
EKVX = test system: EKVX
HCC 2998 = test system: HCC 2998
HT-29 = test system: HT-29
KM12 = test system: KM12
M14 = test system: M14
NCI-H460 = test system: NCI-H460
OVCAR-4 = test system: OVCAR-4
OVCAR-5 = test system: OVCAR-5
RPMI-8226 = test system: RPMI-8226
SK-MEL-5 = test system: SK-MEL-5
SNB-75 = test system: SNB-75
UACC-257 = test system: UACC-257
CAKI-1 = test system: CAKI-1
K562 = test system: K562
SF-539 = test system: SF-539
SR = test system: SR

| Compound | GI50 (COLO 205) | GI50 (EKVX) | GI50 (HCC 2998) | GI50 (HT-29) | GI50 (KM12) | GI50 (M14) | GI50 (NCI-H460) | GI50 (OVCAR-4) | GI50 (OVCAR-5) | GI50 (RPMI-8226) | GI50 (SK-MEL-5) | GI50 (SNB-75) | GI50 (UACC-257) | GI50 (CAKI-1) | GI50 (K562) | GI50 (SF-539) | GI50 (SR) |
| --- | --- | --- | --- | --- | --- | --- | --- | --- | --- | --- | --- | --- | --- | --- | --- | --- | --- |
| N#CC(/C(CCC(=O)Nc1ccc(Cl)cc1)=N/NC(=O)c1cc2ccccc2cc1O)c1ccccc1 (stereo not given) | 40.3 µM (inactive) | 34.4 µM (inactive) | 52.2 µM (inactive) | 45.9 µM (inactive) | 35.9 µM (inactive) | 32.6 µM (inactive) | 30.7 µM (inactive) | 51.9 µM (inactive) | 22.8 µM (inactive) | 14.9 µM (inactive) | 19.4 µM (inactive) | 45 µM (inactive) | 30.7 µM (inactive) |  |  |  |  |
| COc1ccc(NC(=O)CC/C(CC(=O)c2ccco2)=N/NC(N)=S)cc1 | > 100 µM (inactive) | > 100 µM (inactive) | > 100 µM (inactive) | > 100 µM (inactive) | > 100 µM (inactive) | > 100 µM (inactive) | > 100 µM (inactive) | > 100 µM (inactive) | > 100 µM (inactive) | > 100 µM (inactive) |  |  | > 100 µM (inactive) | > 100 µM (inactive) | > 100 µM (inactive) | > 100 µM (inactive) |  |
| COc1ccc2nc3ccccc3c(NCCCCCCN(C)CCCl)c2c1 | 0.265 µM (active) | 1.39 µM (inactive) | 0.705 µM (active) | 0.122 µM (active) | 0.27 µM (active) | 0.834 µM (active) | 0.0569 µM (active) | 1.09 µM (active) | 1.11 µM (active) | 0.0728 µM (active) | 0.918 µM (active) | 0.703 µM (active) | 1.41 µM (inactive) | 0.314 µM (active) | 0.0582 µM (active) | 0.474 µM (active) |  |
| COc1ccc2c(c1)Oc1cc(O)ccc1[C@H]2c1ccccc1C(=O)NC(C)c1ccccc1 (stereo not given in full) | 17.1 µM (inactive) | 16.5 µM (inactive) | 12.8 µM (inactive) | 19.9 µM (inactive) | 14.3 µM (inactive) | 13.1 µM (inactive) | 13.3 µM (inactive) |  | 15.3 µM (inactive) | 4.66 µM (inactive) | 15.1 µM (inactive) | 16.4 µM (inactive) | 17.4 µM (inactive) | 17.3 µM (inactive) | 16.8 µM (inactive) | 16.1 µM (inactive) |  |
| COC(=O)C1=NC(=S)NC(c2ccccc2)C1c1nc2ccccc2s1 (stereo not given) | > 100 µM (inactive) | > 100 µM (inactive) | > 100 µM (inactive) | > 100 µM (inactive) | > 100 µM (inactive) | > 100 µM (inactive) | > 100 µM (inactive) | > 100 µM (inactive) |  |  | > 100 µM (inactive) | 55.3 µM (inactive) | > 100 µM (inactive) | > 100 µM (inactive) |  | 67.8 µM (inactive) | > 100 µM (inactive) |
| O=C1NC(Cc2ccc(O)cc2)C(=O)N2CCCC12 (stereo not given) | > 100 µM (inactive) | > 100 µM (inactive) | > 100 µM (inactive) | > 100 µM (inactive) | > 100 µM (inactive) | > 100 µM (inactive) | > 100 µM (inactive) | > 100 µM (inactive) | > 100 µM (inactive) | > 100 µM (inactive) | > 100 µM (inactive) | > 100 µM (inactive) | > 100 µM (inactive) | > 100 µM (inactive) | > 100 µM (inactive) | > 100 µM (inactive) | > 100 µM (inactive) |
| CCOC(=O)C(C)NC(=O)NC12CC3CC(CC(F)(C3)C1)C2 (stereo not given) | 41.7 µM (inactive) | > 100 µM (inactive) | 31.8 µM (inactive) | > 100 µM (inactive) | > 100 µM (inactive) | 63.8 µM (inactive) | > 100 µM (inactive) |  | > 100 µM (inactive) | 88.3 µM (inactive) | 46 µM (inactive) | 65.3 µM (inactive) | 70.1 µM (inactive) |  | > 100 µM (inactive) | > 100 µM (inactive) |  |
| O=C(/C=C/c1ccco1)c1ccc(NCc2nc3ccccc3[nH]2)cc1 | 13.5 µM (inactive) | 14.6 µM (inactive) | 14.6 µM (inactive) | 19.8 µM (inactive) | 10.3 µM (inactive) | 16.9 µM (inactive) | 23.3 µM (inactive) | 19.2 µM (inactive) | 17.7 µM (inactive) |  | 14.8 µM (inactive) | 15.8 µM (inactive) | 11.1 µM (inactive) | 17.2 µM (inactive) | 15.2 µM (inactive) | 18 µM (inactive) | 10.8 µM (inactive) |
| O=C(NCCCCCCNC(=O)OCCSCCn1cc(C(=O)NC(=O)OCc2ccccc2)c(=O)[nH]c1=O)OCCSCCn1cc(C(=O)NC(=O)OCc2ccccc2)c(=O)[nH]c1=O | > 100 µM (inactive) | > 100 µM (inactive) | > 100 µM (inactive) | > 100 µM (inactive) | > 100 µM (inactive) | > 100 µM (inactive) | > 100 µM (inactive) | > 100 µM (inactive) | > 100 µM (inactive) | > 100 µM (inactive) | > 100 µM (inactive) |  | > 100 µM (inactive) | > 100 µM (inactive) | > 100 µM (inactive) |  |  |
| O=c1[nH]c(=O)n([C@H]2C[C@@H](CO)[C@@H](O)C2)cc1I | > 100 µM (inactive) | > 100 µM (inactive) | > 100 µM (inactive) | > 100 µM (inactive) | > 100 µM (inactive) | > 100 µM (inactive) | > 100 µM (inactive) | > 100 µM (inactive) | > 100 µM (inactive) | > 100 µM (inactive) | > 100 µM (inactive) | 91.6 µM (inactive) | > 100 µM (inactive) | > 100 µM (inactive) | > 100 µM (inactive) | > 100 µM (inactive) |  |
| O=C(O)CCC(=O)Oc1ccc(O)c2c1CCCC2=O | > 100 µM (inactive) | 58.5 µM (inactive) | > 100 µM (inactive) | > 100 µM (inactive) | > 100 µM (inactive) | > 100 µM (inactive) | > 100 µM (inactive) | > 100 µM (inactive) | > 100 µM (inactive) | 95.5 µM (inactive) | 49.8 µM (inactive) | 55.7 µM (inactive) | > 100 µM (inactive) |  | > 100 µM (inactive) | > 100 µM (inactive) | 64 µM (inactive) |
| Cn1ccnc1CCc1ccc(Cl)cc1Cl | > 100 µM (inactive) | 48.8 µM (inactive) | > 100 µM (inactive) | 79.4 µM (inactive) | > 100 µM (inactive) | > 100 µM (inactive) | > 100 µM (inactive) | > 100 µM (inactive) | > 100 µM (inactive) | > 100 µM (inactive) |  | > 100 µM (inactive) | > 100 µM (inactive) | > 100 µM (inactive) | > 100 µM (inactive) | > 100 µM (inactive) |  |
| C[C@H]1CC[P+](Cc2ccccc2)(c2ccccc2)C1 (stereo not given in full) | 38 µM (inactive) | 73.3 µM (inactive) | 67.6 µM (inactive) | 73.6 µM (inactive) | > 100 µM (inactive) | > 100 µM (inactive) | > 100 µM (inactive) | > 100 µM (inactive) | > 100 µM (inactive) | 19.5 µM (inactive) | 22.2 µM (inactive) | 73.6 µM (inactive) | 25.7 µM (inactive) |  | > 100 µM (inactive) | > 100 µM (inactive) | 90.4 µM (inactive) |
| Cc1ccc(-n2nc(C(OC3OC(CO)C(O)C(O)C3O)C(O)CO)c3nc4cc(C)c(C)cc4nc32)cc1 (stereo not given) |  | > 100 µM (inactive) | > 100 µM (inactive) | > 100 µM (inactive) | > 100 µM (inactive) | > 100 µM (inactive) | > 100 µM (inactive) | 99.1 µM (inactive) | > 100 µM (inactive) | > 100 µM (inactive) |  | 34 µM (inactive) | > 100 µM (inactive) |  | > 100 µM (inactive) | > 100 µM (inactive) |  |
| CC1(C)OCC([C@H]2CC23SCCCS3)O1 (stereo not given in full) | > 100 µM (inactive) | > 100 µM (inactive) |  | > 100 µM (inactive) | > 100 µM (inactive) | > 100 µM (inactive) | > 100 µM (inactive) | > 100 µM (inactive) | > 100 µM (inactive) | > 100 µM (inactive) | > 100 µM (inactive) | > 100 µM (inactive) | > 100 µM (inactive) | > 100 µM (inactive) | > 100 µM (inactive) | > 100 µM (inactive) | > 100 µM (inactive) |
| COc1ccc2nc(-c3ccc(O)cc3)ccc2c1 | > 100 µM (inactive) | 95.5 µM (inactive) | 10.4 µM (inactive) | > 100 µM (inactive) | > 100 µM (inactive) | > 100 µM (inactive) | > 100 µM (inactive) | > 100 µM (inactive) | > 100 µM (inactive) | > 100 µM (inactive) | > 100 µM (inactive) | 59.7 µM (inactive) | > 100 µM (inactive) |  | > 100 µM (inactive) | > 100 µM (inactive) | > 100 µM (inactive) |
| Cc1cccc(NC(=O)/C(=N\N)C(c2cnc3ccc([N+](=O)[O-])cc3n2)[N+](=O)[O-])c1C (stereo not given) | > 100 µM (inactive) | > 100 µM (inactive) | > 100 µM (inactive) | > 100 µM (inactive) | 41.8 µM (inactive) | > 100 µM (inactive) | > 100 µM (inactive) | > 100 µM (inactive) |  |  | > 100 µM (inactive) | > 100 µM (inactive) | > 100 µM (inactive) | > 100 µM (inactive) |  | > 100 µM (inactive) | > 100 µM (inactive) |
| C[C@]12CCC(=O)C=C1CC[C@@H]1[C@@H]2C(=O)C[C@@]2(C)[C@H]1CC[C@]2(O)C(=O)CO [CORTISONE] | > 100 µM (inactive) | > 100 µM (inactive) | > 100 µM (inactive) | > 100 µM (inactive) | > 100 µM (inactive) | > 100 µM (inactive) | > 100 µM (inactive) | > 100 µM (inactive) |  | > 100 µM (inactive) | > 100 µM (inactive) | > 100 µM (inactive) |  | > 100 µM (inactive) | > 100 µM (inactive) | > 100 µM (inactive) | > 100 µM (inactive) |
